In patent publication US20260191858A1, “COMBINATION THERAPIES” (Kallyope, Inc., priority 2022, published 2026):

system: male C57BL/6J mice; assay: Glucose excursion during oral glucose tolerance test in mice; assay type: in vivo; settings: OGTT in mice
Protocol: The effects of GPR40 agonists of Formula (B) and a GPR119 agonist of Formula (A) alone and in combination on glucose excursion during an oral glucose tolerance test were assessed in mice. The effects of the combination of a compound of Formula (A) and compounds of Formula (B) with linagliptin (a DPP-4 inhibitor) or metformin were also assessed. Male C57BL/6J mice, approximately 10 weeks old, were acclimated to the facility and the oral dosing procedure. Mice were randomized into balanced treatment groups using body weight. Baseline glucose was assessed immediately before compound administration. […] Blood was assessed for glucose levels 20 min, 40 min, 60 min, and 120 min post D-(+)-glucose administration. The AUCs for blood glucose measures were calculated for each treatment from 0 to 120 min. Statistical analysis was performed on AUCs using one-way ANOVA versus vehicle, with Tukey's post-test.

In the case of `CN(C)C(=N)N=C(N)N` [metformin], the post-prandial glucose excursion is reported as “suppressed post-prandial glucose excursion”.

molecular target: T1, human GPR40 (Homo sapiens, UniProt O14842); assay: Inositol phosphate accumulation assay in CHO-K1 cells expressing human GPR40; assay type: cell-based; settings: CHO-K1 human GPR40, IP1 HTRF, 90 min
T1 construct: host or cells: CHO-K1
T1 sequence (O14842 whole entry): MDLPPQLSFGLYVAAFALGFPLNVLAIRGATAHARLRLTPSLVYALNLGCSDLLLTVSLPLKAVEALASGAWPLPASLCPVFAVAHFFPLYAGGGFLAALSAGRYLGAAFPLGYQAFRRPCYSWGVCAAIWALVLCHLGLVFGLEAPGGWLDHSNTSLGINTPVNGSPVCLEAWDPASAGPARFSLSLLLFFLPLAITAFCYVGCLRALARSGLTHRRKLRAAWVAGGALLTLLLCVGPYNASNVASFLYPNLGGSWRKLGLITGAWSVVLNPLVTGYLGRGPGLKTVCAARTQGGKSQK
Protocol: CHO-K1 cells expressing human GPR40 were purchased from DiscoverX (95-1005C2). HEK293 cells expressing mouse FFAR1 were prepared using a mouse FFAR1 carrying plasmid purchased from OriGene Technologies (MR222997). The cells were transfected using Lipofectamine 2000 using manufacturer instructions and stable cell line was established from a single cell using geneticine selection. Assay ready frozen (ARF) cells were prepared and used throughout the study.
The assay was performed in a 384-well plate format using IP1 assay kit from Cis-Bio. ARF cells expressing FFAR1 (mouse and human) were thawed, washed and then plated in the appropriate medium (F12 based medium for CHO hFFAR1 and DMEM based medium for HEK293 mFFAR1—both were supplemented with 10% FBS and penicillin/streptomycin). 20 μL of 3.5×10^5 cells/mL were plated on a Poly D-Lysine coated 384-well white plate. The cells were then incubated for 16 hr at 37° C./5% CO2. After 16 hr the medium was removed and 15 μL of stimulation buffer containing the test compounds was added to the cells. The plates were then incubated for 90 min at 37° C./5% CO2. 5 μL of detection buffer (prepared as described in the IP-one kit) was added to each well and the plates were incubated at RT for 1 hr.
[…] was measured using ClarioSTAR plate reader, calculating the ratio between emissions at 665 nm and 620 nm (HTRF ratio). HTRF ratio for positive (Max) and negative (Min) controls were used to normalize HTRF data and generate values for % activity. EC50 and Max activity values were determined using a standard 4-parameter fit.

`COc1ccc(F)c([C@H]2CC[C@H](COc3cccc([C@H](C[P@@](C)(=O)O)C4CC4)c3)CC2)c1` (single isomer, unassigned) [Compound B3] and `COc1ccc(F)c([C@H]2CC[C@H](COc3cccc([C@@H](C[P@@](C)(=O)O)C4CC4)c3)CC2)c1` (single isomer, unassigned) [Compound B4] cannot be ordered by EC50: at most 50 nM for the first, 50 to 250 nM for the second.

`COc1ccc(F)c([C@H]2CC[C@H](COc3cc([C@@H](CP(C)(=O)O)C4CC4)ccn3)CC2)c1` [Compound B5, ((S)-2-cyclopropyl-2-(2-(((trans)-4-(2-fluoro-5-methoxyphenyl)cyclohexyl)methoxy)pyridin-4-yl)ethyl)(methyl)phosphinic acid] and `COc1ccc(CCCC(C)(C)C)c(N2CCC(COc3cc([C@@H](CP(C)(=O)O)C4CC4)ccn3)CC2)c1` [Compound B7, ((S)-2-cyclopropyl-2-(2-((1-(2-(4,4-dimethylpentyl)-5-methoxyphenyl)piperidin-4-yl)methoxy)pyridin-4-yl)ethyl)(methyl)phosphinic acid] cannot be ordered by EC50: at most 50 nM for the first, at most 50 nM for the second.

`COc1ccc(CCCC(C)(C)C)c(N2CCC(COc3cccc([C@@H](CP(C)(=O)O)C4CC4)c3)CC2)c1` [Compound B6, ((S)-2-cyclopropyl-2-(3-((1-(2-(4,4-dimethylpentyl)-5-methoxyphenyl)piperidin-4-yl)methoxy)phenyl)ethyl)(methyl)phosphinic acid] and `COc1ccc(CCCC(C)(C)C)c(N2CCC(COc3cccc([C@H](C)CP(C)(=O)O)c3)CC2)c1` [Compound B10, ((S)-2-(3-((1-(2-(4,4-dimethylpentyl)-5-methoxyphenyl)piperidin-4-yl)methoxy)phenyl)propyl)(methyl) phosphinic acid] cannot be ordered by EC50: at most 50 nM for the first, at most 50 nM for the second.

Compared with `COc1ccc(CCCC(C)(C)C)c(N2CCC(COc3cc([C@@H](C)CP(C)(=O)O)ccn3)CC2)c1` [Compound B8, ((R)-2-(2-((1-(2-(4,4-dimethylpentyl)-5-methoxyphenyl)piperidin-4-yl)methoxy)pyridin-4-yl)propyl)(methyl)phosphinic acid], `COc1ccc(CCCC(C)(C)C)c(N2CCC(COc3cc([C@H](C)CP(C)(=O)O)ccn3)CC2)c1` [Compound B9, ((S)-2-(2-((1-(2-(4,4-dimethylpentyl)-5-methoxyphenyl)piperidin-4-yl)methoxy)pyridin-4-yl)propyl)(methyl)phosphinic acid] is higher in EC50: at most 50 nM for the first, 250 to 1000 nM for the second. The first is the more potent here.

Compared with `COc1ccc(CCCC(C)(C)C)c(N2CCC(COc3cccc([C@@H](C)CP(C)(=O)O)c3)CC2)c1` [Compound B11, ((R)-2-(3-((1-(2-(4,4-dimethylpentyl)-5-methoxyphenyl)piperidin-4-yl)methoxy)phenyl)propyl)(methyl) phosphinic acid], `CC[C@@H](Cc1cccc(OCC2CCN(c3cc(OC)ccc3CCCC(C)(C)C)CC2)c1)P(C)(=O)O` [Compound B12, ((S)-1-(3-((1-(2-(4,4-dimethylpentyl)-5-methoxyphenyl)piperidin-4-yl)methoxy)phenyl)butan-2-yl)(methyl)phosphinic acid] is higher in EC50: 50 to 250 nM for the first, 250 to 1000 nM for the second.

Work on `CC[C@H](Cc1cccc(OCC2CCN(c3cc(OC)ccc3CCCC(C)(C)C)CC2)c1)P(C)(=O)O` [Compound B13, ((R)-1-(3-((1-(2-(4,4-dimethylpentyl)-5-methoxyphenyl)piperidin-4-yl)methoxy)phenyl)butan-2-yl)(methyl)phosphinic acid] yielded an EC50 of 250 to 1000 nM.
